One test has as its system MDA-MB-231 cells. As to the kind of experiment: MTT cell viability with anti-cancer drugs, MDA-MB-231 cells. The test is classed as cell-based, human. The following applies: read-out: 50% inhibitory concentration (IC50), cell viability. The method, then:
The level of multidrug resistance protein permeability glycoprotein (P-gp) was determined by upper panel. Cell growth was determined using the MTT assay 2 days after treatment (lower panel).
Cell proliferation was analyzed using the yellow tetrazolium (MTT) assay. Cells were seeded in 24-well plates at 1×10^4 cells/well and cultured in DMEM containing 10% FCS at 37° C. overnight. Cells were treated with or without various plasmids and incubated for 24 or 48 h. After incubation, the medium was replaced with fresh medium, and the cells were incubated with 1 mg/ml MTT for 3 h before being dissolved in 1 ml of DMSO for 30 min. The optical density at 570 nm was measured using a spectrophotometer.
To determine if MZF-160-72 peptide-mediated decrease in P-gp expression sensitizes breast cancer cells to chemotherapeutic agents, MZF-160-72-expressing MDA-MB-231 stable cells were treated with acriflavine and cisplatin (commonly used to treat breast cancer-insert) and their cell viability measured.

The subject of the next test is Hs578T cells. Description: MTT cell viability with anti-cancer drugs, Hs578T cells. The test is classed as cell-based, human.
The target in a further test is T1, MZF-1/Elk-1 interaction (Homo sapiens, UniProt P19419+P28698).
T1 construct: FLAG-Elk-1; 1-428; MZF-1-c-Myc; 1-485; His (from the myc-His vector) (C); expressed in transfected cells; host or cells: HEK-293 (lysates)
T1 sequence (P28698 1-485 isoform P28698-2, one chain of several): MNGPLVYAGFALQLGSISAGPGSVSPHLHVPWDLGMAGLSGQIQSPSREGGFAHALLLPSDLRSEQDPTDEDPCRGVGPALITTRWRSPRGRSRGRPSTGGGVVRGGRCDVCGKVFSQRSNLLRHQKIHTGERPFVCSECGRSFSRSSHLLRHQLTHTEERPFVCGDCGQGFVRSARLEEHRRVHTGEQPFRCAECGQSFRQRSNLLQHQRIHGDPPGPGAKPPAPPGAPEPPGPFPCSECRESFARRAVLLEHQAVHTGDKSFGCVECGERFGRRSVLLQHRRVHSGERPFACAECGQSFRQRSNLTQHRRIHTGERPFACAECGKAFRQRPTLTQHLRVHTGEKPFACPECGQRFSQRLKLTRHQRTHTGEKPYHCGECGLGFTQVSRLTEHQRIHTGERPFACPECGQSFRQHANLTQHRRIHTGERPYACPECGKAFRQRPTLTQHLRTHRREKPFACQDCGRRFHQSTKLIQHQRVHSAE
As to the kind of experiment: Co-immunoprecipitation of MZF-1 and Elk-1 in HEK-293 lysates with added TAT-fused peptides. To be noted: 50, 100 and 150 nmol peptide added to lysates, overnight at 4° C. The format is binding. The protocol:
HEK-293 cells were transfected with empty vector, FLAG-Elk-1, MZF-1-c-Myc, FLAG-MZF-1 or Elk-1-cMyc construct. ‘+’ indicates the presence of each item and ‘-’ indicates their absence. Different concentrations (50, 100 and 150 nmol) of TAT-fused peptides (normal or mutant) were then added to the lysates and incubated overnight at 4° C. and then subjected to immunoprecipitation with anti-c-Myc antibody, followed by immunoblotting against FLAG and c-Myc. Lysates of HEK-293 cells transfected with FLAG-Elk-1 or FLAG-MZF-1 vector indicated as a “Input”.

In test [1] the test system is Hs578T and MDA-MB-231 cells. As to the kind of experiment: Cell migration assay after treatment with TAT-fused peptides. The test is classed as cell-based, human. To be noted: 3 days after addition of the peptides. The method, then:
The cell migration assay was performed 3 days after the addition of the peptides to the cells.
(§1) The TAT-fused peptides were designed such that the TAT moiety corresponds to amino acid residues 48-57 of the HIV TAT protein, the MZF-160-72 moiety corresponds to residue 60-72 of the human MZF-1 protein and the Elk-1145-157 moiety corresponds to residues 145-157 of the human Elk-1 protein. The TAT and MZF-1/Elk-1 moieties were linked by three glycine linker residues. The TAT-fused peptide MZF-1 normal fragment (60-72; […] as SEQ ID NO: 57), MZF-1 mutant fragment (60-72; […] as SEQ ID NO: 58), Elk-1 normal fragment (145-157; […] as SEQ ID NO: 59), and Elk-1 mutant fragment (145-157; […] as SEQ ID NO: 60) were synthesized by MDBio, Inc. (Taipei, Taiwan). For transduction of the TAT fusion proteins cells were cultured to 50-60% confluence. The culture medium was removed and replaced with fresh, serum-free medium, followed by the addition of the TAT fusion proteins at the indicated concentrations. Three days post-treatment the cells were used for migration assays and western blotting.
The migration assay was performed using a 48-well Boyden chamber (Neuro Probe) plated with 8-μm pore size polycarbonate membrane filters (Neuro Probe). […] The migratory phenotypes were determined by counting the cells that migrated to the lower side of the filter through microscopy at 200× magnification.

Test [2] relates to Hs578T and MDA-MB-231 cells. Description: Immunoblotting of protein levels in TAT-fused peptide-treated cells. The test is classed as cell-based, human. To be noted: three days post-treatment.
Source text: as §1
Background: Immunoblotting shows a protein as a band on a membrane.

Test [3] concerns the target T2, Elk-1 and MZF-1 DNA-binding activity at the PKCα promoter (Homo sapiens, UniProt P19419+P28698).
T2 construct: Primers and restriction enzyme (R.E.) sites for the full-length and truncated MZF-1, Elk-1; expressed in transfected cells; host or cells: HEK-293 (nuclear extracts)
Description: EMSA of Elk-1 and MZF-1 binding to PKCα promoter probe, nuclear extracts of transfected HEK-293 cells. The following applies: biotin-labeled WT PKCα promoter probe. The format is biochemical. The method, then:
The biotin-labeled WT oligonucleotide probes were incubated with the indicated concentration of nuclear extracts of the different-treated HEK-293 cells, which were transfected with empty vector, Elk-1, MZF-1, MZF-160-72 or mutant MZF-160-72 and the reactions were resolved on a nondenaturing polyacrylamide gel. DNA-protein complexes are indicated by the black arrow-head.
The biotin-labeled wild-type oligonucleotide probes were incubated with the indicated concentration of nuclear extracts of the different-treated HEK-293 cells, which were transfected with empty vector, Elk-1, MZF-1, Elk-1145-157 or mutant Elk-1145-157.
EMSA analysis was performed using a LightShift™ chemiluminescent EMSA kit (Pierce). 15 μg of nuclear extract was used for each EMSA analysis. […] The membrane was immediately cross-linked at 120 mJ/cm^2 using an UV transilluminator and then analyzed via chemiluminescence according to the manufacturer's instructions.
In general terms: A gel shift assay detects complexes by their altered migration in electrophoresis.

In another test the target is T3, Elk-1 (Homo sapiens, UniProt P19419).
T3 construct: FLAG-Elk-1; 1-428; expressed in transfected cells; host or cells: HEK-293
T3 sequence (P19419 1-428): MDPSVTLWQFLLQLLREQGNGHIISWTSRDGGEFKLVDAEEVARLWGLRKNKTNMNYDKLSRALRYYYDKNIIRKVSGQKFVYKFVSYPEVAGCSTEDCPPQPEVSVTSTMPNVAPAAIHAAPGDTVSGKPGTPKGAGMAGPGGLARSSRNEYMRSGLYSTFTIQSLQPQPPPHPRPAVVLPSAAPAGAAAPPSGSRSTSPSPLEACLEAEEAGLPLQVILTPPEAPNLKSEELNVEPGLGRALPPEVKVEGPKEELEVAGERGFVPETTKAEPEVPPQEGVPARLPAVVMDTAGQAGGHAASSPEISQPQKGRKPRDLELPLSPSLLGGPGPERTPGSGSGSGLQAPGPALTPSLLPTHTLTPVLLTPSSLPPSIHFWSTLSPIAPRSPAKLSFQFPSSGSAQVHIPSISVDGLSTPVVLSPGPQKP
Description: Co-immunoprecipitation of MZF-1-c-Myc fragments with FLAG-Elk-1 in transfected HEK-293 cells. The format is binding. To be noted: FLAG-Elk-1 plus c-Myc fragment. The method, then: Red bands indicate the fragments that bound Elk-1 as present in the co-immunoprecipitation assay (lower panel). HEK-293 cells were transfected with 5 μg FLAG-Elk-1 and either empty vector or the indicated MZF-1-c-Myc fragment. The c-Myc-fused peptides were Immunoprecipitation by c-Myc monoclonal antibody and then Immunoblotting with the anti-FLAG antibodies. Lysates of HEK-293 cells transfected with the FLAG-Elk-1 only were also Immunoblotting as a control (Input).
MZF-1 contains an acidic domain (amino acids 60-72) with six aspartates or glutamates upstream of the zinc finger regions. To identify the specific residues through which MZF-1 interacts with Elk-1 we designed various protein fragments containing only the relevant interacting domains for co-immunoprecipitation assays (FIG. 14, top). The full-length MZF-1 and MZF-11-72, MZF-11-141, and MZF-160-72 fragments (all contain the acidic domain) all bound Elk-1 (FIG. 14, lower panel) but not MZF-11-60 or MZF-173-485.

Test [4] concerns the target T4, FLAG-MZF-1 (amino acids 1-485) (human, UniProt P28698-2 1-485).
T4 construct: range 1-485; Full-length MZF-1 expressed in HEK-293 cells; not shown: FLAG tag
Description: co-immunoprecipitation, HEK-293 cells.

Test [5] concerns the target T5, FLAG-Elk-1 (amino acids 1-428) (human, UniProt P19419 1-428).
T5 construct: range 1-428; Full-length Elk-1 expressed in HEK-293 cells; not shown: FLAG tag
T5 sequence (looked up): T3 sequence (P19419 1-428)
As to the kind of experiment: co-immunoprecipitation (anti-c-Myc IP, anti-FLAG blot), HEK-293 cells.

The mark [6] stands for this setting: MDA-MB-231 cells before MZF-160-72 expression (parental).
The mark [7] stands for this setting: MZF-160-72-expressing MDA-MB-231 stable cells.
The mark [8] stands for this setting: Hs578T cells before MZF-160-72 expression (parental).
Where [9] appears, read: MZF-160-72-expressing Hs578T cells.

Where two headings read alike, the source gives them in different places. No end group written: not given here.

T2 sequence (P28698 1-485 isoform P28698-2, one chain of several): as the sequence (P28698 1-485 isoform P28698-2, one chain of several) above

On to acriflavine, for which the IC50 worked out at 2.43 µM in the test on MDA-MB-231 cells (setting [6]), 1.49 µM in the test with MDA-MB-231 cells (setting [7]), 2.56 µM in the test with Hs578T cells (setting [8]) and 1.33 µM in the test on Hs578T cells (setting [9]).
“YGRKKRRQRRRGGGDEDTPDQESRLDS (listed as Homo sapiens) [TAT-MZF-160-72, TAT-fused peptide MZF-1 normal fragment (60-72), three glycine linker residues]”: in the test with MZF-1/Elk-1 interaction, the “binding of MZF-1 to Elk-1 and vice versa (co-immunoprecipitation)” value is “reduced the binding of MZF-1 to Elk-1 and vice versa in a dose-dependent manner”. Also, in test [1], the cell migration result is recorded as “reduced cell migration”. In test [2], the “levels of EMT-related (PKCα, Slug and Vimentin) proteins” value is listed as “noticeably increased”; the “levels of MET-related (E-cadherin) proteins” value was “decreased”.
Regarding “Elk-1145-157: Heparin-binding domain fragment, amino acids 145-157 of human Elk-1; expressed as c-Myc-fused fragment (LARSSRNEYMRSG; also: c-Myc tag fusion; listed as Homo sapiens)”, the “Elk-1 and MZF-1 DNA-binding activity (EMSA)” value in [3] is “decreased Elk-1 and MZF-1 DNA-binding activity in a dose-dependent manner”.
`N.N.[Cl][Pt][Cl]` [cisplatin]: the IC50 in the test with MDA-MB-231 cells (setting [6]) is 23.7 µM; in the test with MDA-MB-231 cells (setting [7]), 16.2 µM; with Hs578T cells (setting [8]), 28 µM; in the test on Hs578T cells (setting [9]), 21.1 µM.
For “YGRKKRRQRRRGGGLARSSRNEYMRSG (listed as Homo sapiens) [TAT-Elk-1145-157, TAT-fused peptide Elk-1 normal fragment (145-157), three glycine linker residues]”, in the test with MZF-1/Elk-1 interaction, the “binding of MZF-1 to Elk-1 and vice versa (co-immunoprecipitation)” value is “reduced the binding of MZF-1 to Elk-1 and vice versa in a dose-dependent manner”. Besides, in test [1], the cell migration entry is listed as “reduced cell migration”. For the same molecule, in test [2], the “levels of EMT-related (PKCα, Slug and Vimentin) proteins” value is listed as “noticeably increased”; the “levels of MET-related (E-cadherin) proteins” value was “decreased”.
“mutant MZF-160-72: MZF-1 60-72 fragment with aspartates D61, D67, D70 and D72 changed to uncharged alanine”: the “binding to Elk-1 (co-immunoprecipitation)” value with Elk-1 was “substantially decreased”. For the same molecule, the “Elk-1 and MZF-1 DNA-binding activity (EMSA)” value in test [3] is “did not affect their binding activity”.

B1: Elk-1-c-Myc fragment, amino acids 145-157 (Mutant) (peptide, UniProt P19419 145-157, looked up)
chain: LAASSANEYMASG
notes: not shown: c-Myc(-His) tag from the pcDNA3.1/myc-His vector
Consider B1, for which the binding result in [4] is recorded as “no binding”.

B2: MZF-1-c-Myc fragment, amino acids 1-60 (other, human, UniProt P28698-2 1-60, looked up)
chain: MNGPLVYAGFALQLGSISAGPGSVSPHLHVPWDLGMAGLSGQIQSPSREGGFAHALLLPS
notes: range 1-60; Expressed in HEK-293 cells; also called MZF-11-60; not shown: c-Myc(-His) tag from the pcDNA3.1/myc-His vector
On to B2, for which the binding result in [5] is reported as “no binding”.

The record behind these values is patent US20160362463A1, “Pharmaceutical composition inhibiting interaction between MZF-1 and Elk-1” (China Medical University, priority 2015, published 2016).
